Results on eight molecules are retold here after US8088815B2, “Spiroindolinone pyrrolidines” (Hoffman-La Roche Inc., priority 2009, dated 2012).

pIC50: −log10 of the molar value.

The target of this assay is interaction between p53 and MDM2 proteins (Homo sapiens, UniProt Q00987). The assay can be described thus: HTRF assay of inhibition of the p53-MDM2 interaction (GST-MDM2 / biotinylated p53 peptide). The format is binding. The settings on record: recombinant GST-tagged MDM2 and biotinylated p53 peptide, bsa:0.02%.
Sequence of interaction between p53 and MDM2 proteins (Q00987 whole entry): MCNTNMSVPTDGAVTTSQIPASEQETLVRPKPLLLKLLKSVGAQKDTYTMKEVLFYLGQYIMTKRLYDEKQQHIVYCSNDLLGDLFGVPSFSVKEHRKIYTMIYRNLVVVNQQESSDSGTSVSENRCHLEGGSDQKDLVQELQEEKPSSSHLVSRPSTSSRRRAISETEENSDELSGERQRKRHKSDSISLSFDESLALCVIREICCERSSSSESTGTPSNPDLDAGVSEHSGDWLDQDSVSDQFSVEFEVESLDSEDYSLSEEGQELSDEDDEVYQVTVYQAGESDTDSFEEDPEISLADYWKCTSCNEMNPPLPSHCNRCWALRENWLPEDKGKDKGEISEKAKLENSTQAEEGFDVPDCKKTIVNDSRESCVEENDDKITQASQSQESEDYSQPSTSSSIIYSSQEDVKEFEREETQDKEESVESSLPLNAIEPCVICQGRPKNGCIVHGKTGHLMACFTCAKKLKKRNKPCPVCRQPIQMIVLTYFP
`COc1cc(OC2CCOCC2)ccc1NC(=O)[C@@H]1N[C@@H](CC(C)(C)C)[C@@]2(C(=O)Nc3cc(Cl)ccc32)[C@H]1c1cccc(Cl)c1F` [Example 157, chiral (2′S,3′R,4′S,5′R)-6-chloro-4′-(3-chloro-2-fluoro-phenyl)-2′-(2,2-dimethyl-propyl)-2-oxo-1,2-dihydro-spiro[indole-3,3′-pyrrolidine]-5′-carboxylic acid [2-methoxy-4-(tetrahydro-pyran-4-yloxy)-phenyl]-amide]: the pIC50 is 8.00.

Turning to `COc1cc(NC(=O)[C@@H]2N[C@@H](CC(C)(C)C)[C@@]3(C(=O)Nc4cc(Cl)ccc43)[C@H]2c2cccc(Cl)c2F)ccc1C(=O)O` (racemic) [Example 16, rac-4-{[(2′S,3′R,4′S,5′R)-6-chloro-4′-(3-chloro-2-fluoro-phenyl)-2′-(2,2-dimethyl-propyl)-2-oxo-1,2-dihydro-spiro[indole-3,3′-pyrrolidine]-5′-carbonyl]-amino}-2-methoxy-benzoic acid], the pIC50 was 8.00.

In the case of `COC(=O)c1ccc(NC(=O)[C@@H]2N[C@@H](CC(C)(C)C)[C@@]3(C(=O)Nc4cc(Cl)ccc43)[C@H]2c2cccc(Cl)c2F)cc1Cl` (racemic) [Example 25, rac-2-chloro-4-{[(2′S,3′R,4′S,5′R)-6-chloro-4′-(3-chloro-2-fluoro-phenyl)-2′-(2,2-dimethyl-propyl)-2-oxo-1,2-dihydro-spiro[indole-3,3′-pyrrolidine]-5′-carbonyl]-amino}-benzoic acid methyl ester], the negative-log IC50 (pIC50) is 7.70.

In the case of `CC(C)(C)C[C@@H]1N[C@@H](C(=O)Nc2ccc(C#N)cc2)[C@H](c2cccc(Cl)c2)[C@]12C(=O)Nc1cc(Cl)ccc12` (racemic) [Example 64, rac-(2′S,3′R,4′R,5′R)-6-chloro-4′-(3-chloro-phenyl)-2′-(2,2-dimethyl-propyl)-2-oxo-1,2-dihydro-spiro[indole-3,3′-pyrrolidine]-5′-carboxylic acid (4-cyano-phenyl)-amide], the pIC50 was 7.47.

With `CCOc1cc(C(N)=O)ccc1NC(=O)[C@@H]1N[C@@H](CC(C)(C)C)[C@@]2(C(=O)Nc3cc(Cl)ccc32)[C@H]1c1cccc(Cl)c1F` (racemic) [Example 131, rac-(2′S,3′R,4′S,5′R)-6-chloro-4′-(3-chloro-2-fluoro-phenyl)-2′-(2,2-dimethyl-propyl)-2-oxo-1,2-dihydro-spiro[indole-3,3′-pyrrolidine]-5′-carboxylic acid (4-carbamoyl-2-ethoxy-phenyl)-amide], the pIC50 is 7.85.

As to `COc1cc(OCCO)ccc1NC(=O)[C@@H]1N[C@@H](CC(C)(C)C)[C@@]2(C(=O)Nc3c2ccc(Cl)c3F)[C@H]1c1cccc(Cl)c1F` (racemic) [Example 179, rac-(2′S,3′R,4′S,5′R)-6-chloro-4′-(3-chloro-2-fluoro-phenyl)-2′-(2,2-dimethyl-propyl)-7-fluoro-2-oxo-1,2-dihydro-spiro[indole-3,3′-pyrrolidine]-5′-carboxylic acid [4-(2-hydroxy-ethoxy)-2-methoxy-phenyl]-amide], the negative-log IC50 (pIC50) is 7.41.

Consider `CC(C)(C)C[C@@H]1N[C@@H](C(=O)Nc2ccc(C(=O)O)cc2)[C@H](c2cccc(Cl)c2F)[C@]12C(=O)Nc1cc(Cl)ccc12` (racemic) [Example 6, rac-4-{[(2′S,3′R,4′S,5′R)-6-chloro-4′-(3-chloro-2-fluoro-phenyl)-2′-(2,2-dimethyl-propyl)-2-oxo-1,2-dihydro-spiro[indole-3,3′-pyrrolidine]-5′-carbonyl]amino}-benzoic acid], for which the pIC50 was 7.96.

With `COc1cc(C(N)=O)ccc1NC(=O)[C@@H]1N[C@@H](CC(C)(C)C)[C@@]2(C(=O)Nc3cc(Cl)ccc32)[C@H]1c1cc(F)cc(Cl)c1` [Example 148, chiral (2′S,3′R,4′R,5′R)-6-chloro-4′-(3-chloro-5-fluoro-phenyl)-2′-(2,2-dimethyl-propyl)-2-oxo-1,2-dihydro-spiro[indole-3,3′-pyrrolidine]-5′-carboxylic acid (4-carbamoyl-2-methoxy-phenyl)-amide], the pIC50 was 8.30.
